Results: PMC8999917, “Structure–Activity Relationship of Synthetic Ginkgolic Acid Analogs for Treating Type 2 Diabetes by PTPN9 Inhibition” (International Journal of Molecular Sciences, 2022)

System: Akt phosphorylation
Test: Western blot of Akt phosphorylation in C2C12 myotubes
Format: cell-based, mouse
Text: To further investigate the mechanism of action of 1e, we evaluated its effects on AMPK and AKT phosphorylation in C2C12 myotubes. […] In line with the results obtained in 3T3-L1 cells, in the absence of insulin, 1e had no effects on basal p-Akt expression levels (Figure 6A). Since insulin plays an important role in regulating glucose metabolism through the redistribution of GLUT4 from intracellular vesicles to the cell surface, it is important to describe the interaction between 1e and insulin in the Akt pathway. […] Next, we evaluated the protective effects of 1e against PA-induced insulin resistance in C2C12 myotubes. To generate an insulin resistance model, C2C12 myotubes were treated with 250 µM PA in a serum-free medium for 16 h. Akt phosphorylation levels in PA-treated C2C12 cells decreased by 50% compared to levels in normal C2C12 cells (Figure 6C). Furthermore, in the presence of insulin and GA, Akt phosphorylation levels decreased only by 30% compared to levels in normal cells. […] The expression levels of glucose uptake-related proteins were determined via Western blotting, as previously described. […] Secondary antibodies were added to the membranes at a concentration of 1:2000 for 1 h at room temperature, and immunoreactive bands were detected via ECL (GE Healthcare Korea Co., Ltd., Incheon, Korea). […]

CCCCCCCCCCCCCOc1cccc(O)c1C(=O)O [Compound 1e]
Akt phosphorylation on co-treatment with insulin (100 nM insulin): synergistic Akt phosphorylation-improving effects with insulin
basal p-Akt expression levels (absence of insulin): no effects
